The data set in a line: in vitro. The settings on record: human, hela cells, % viability.
In general, viability refers to a read-out of living cells in per cent, often relative to untreated cells. With `CCOc1cc(/C=C2\SC(=N)NC2=O)ccc1OS(=O)(=O)c1ccc(NC(C)=O)cc1` [CBK265243], the viability at 28.5 h, 10 µM is 94%.
In the case of `CN(C)CC1CN(C(=O)c2ccccc2F)Cc2ccccc2O1` (stereo not drawn) [CBK285188] it was 86.9%.
As for `OCCNC(=S)Nc1ccc(Cl)cc1Cl` [CBK265330], the figure is 106%; as for `O=[N+]([O-])c1ccc(CN2CCC(Oc3nccnc3OCc3ccc(Cl)c(Cl)c3)CC2)cc1` [CBK083107T], 104%; as for `COc1cccc(NC(=O)c2ccncc2Cl)c1` [CBK174695], 96.3%.
In the case of `Cc1nc(N)nc(N[C@@H]2CCOC[C@H]2OCCN(C)C)c1Cl` [CBK307024] it was 88.7%; in that of `CC(C)CC(NS(=O)(=O)c1cccc2nsnc12)C(=O)O` (stereo not drawn) [CBK217288], 94.2%.
In the case of `COc1ccc(C(=O)N2CCC3(CCCN(C(=O)Cn4cc(C)c(=O)[nH]c4=O)C3)C2)cc1OC` (stereo not drawn) [CBK137085], the viability at 28.5 h, 10 µM turned out to be 107%.
In the case of `O=C(c1ccncc1)N1C[C@H]2CCc3c(n[nH]c3C(F)(F)F)[C@H]2C1` [CBK282110], the viability at 28.5 h, 10 µM is 87.3%.
As for `COc1cc(C)c(Nc2cccc(/C=C/c3ccccc3)n2)cc1OC` [CBK037725], the figure is 102%.
As for `CCn1cc(NC(=O)C(CC)(CC)CN)ccc1=O` [CBK304320C], the figure is 89.2%; as for `Cc1ccc(Oc2ncccc2NC(=O)CN2CCC(NC(=O)c3ccccc3)CC2)c2c1CCC2` [CBK074715], 112%.
In the case of `CCOc1ccc(-c2cncc(Nc3ccc(C#N)cc3)n2)cc1` [CBK065862] it was 87.2%; in that of `O=C(Cc1ccc(F)cc1)N1CCC(n2cnc3cccnc32)CC1` [CBK283574], 91.1%.
With `O=C(NN=Cc1ccc(O)cc1)c1cc[n+](Cc2ccccc2)cc1` [CBK262047C], the viability at 28.5 h, 10 µM stood at 87.3%.
In the case of `CN1CCN(CCP(=O)(c2ccccc2)c2ccccc2)CC1` [CBK020260] it was 94.1%; in that of `Cc1cc(Cl)ccc1OCCCC(=O)Nc1sc2c(c1C(N)=O)CCCCCC2` [CBK265390], 94.8%; in that of `COc1cccc(CNc2nccnc2-c2ccc(S(C)(=O)=O)cc2)c1OC` [CBK037452], 104%.
In the case of `O=C(Cn1c(=O)oc2ccccc21)Nc1ccc(N2CCOCC2)c(Cl)c1` [CBK270079] it was 102%; in that of `CCNC(=O)Nc1ncc(-c2ccc(Oc3ccccc3)cc2)c2cccnc12` [CBK070636], 104%; in that of `O=C(Nc1ccc(C(=O)O)c(O)c1)c1ccc(Br)o1` [CBK270053], 87%.
With `CCc1ccc(OCC(=O)O/N=C(\N)c2ccncc2)c(Br)c1` [CBK265994], the viability at 28.5 h, 10 µM is 86.6%.
As for `O=C(Nc1ccccc1N1CCOCC1)c1cccc(OCc2ccccc2)c1` [CBK270011], the figure is 104%; as for `O=C(Nc1ccc(I)cc1C(=O)NCCN1CCOCC1)c1ccc(Cl)cc1Cl` [CBK266157], 100%.
As for `CC(C)C(=O)N1CCCC(n2c(=O)oc3ccc(Cl)cc32)C1` (stereo not drawn) [CBK282890], the viability at 28.5 h, 10 µM stood at 95.3%.
As for `COc1cc([C@@H]2c3cc4c(cc3[C@H](O)[C@H]3COC(=O)[C@@H]23)OCO4)cc(OC)c1OC` [CBK051004], the figure is 36.3%; as for `S=C(Nc1ccccc1)N(CCN1CCOCC1)Cc1cccc(Cl)c1` [CBK267975], 103%; as for `CCN(CC)C(=O)CN1CCN(c2nccnc2OCc2cccnc2)CC1` [CBK083140], 100%.
In the case of `O=C(COc1ccc(S(=O)(=O)NC2CCCC2)cc1)Nc1ccc2c(c1)OCCO2` [CBK266431] it was 101%.
As for `Cc1ccc(NC2CC(C)N(C(=O)c3cccc([N+](=O)[O-])c3)c3ccc(C)cc32)cc1` (stereo not drawn) [CBK293929], the figure is 86.5%; as for `Cc1nc2cccnc2n1CCNC(=O)c1cccc(Cl)c1` [CBK283593], 97.9%; as for `Cc1nn(Cc2ccc(Cl)cc2)c(C)c1NC(=O)CSc1nc(-c2ccc(F)cc2)cc(C(F)(F)F)n1` [CBK266160], 89.7%.
Regarding `Nc1ncc(-c2ccc(C(=O)N3CCOCC3)cc2)cc1C(=O)Nc1ccncc1` [CBK160202], the viability at 28.5 h, 10 µM stood at 93.6%.
In the case of `Cc1nc(C2CN(c3ccnc4c(F)cccc34)CCO2)no1` (stereo not drawn) [CBK304464] it was 80.7%; in that of `c1ccc(CCCN2CCN(Cc3ccccn3)CC2)cc1` [CBK263461G], 91.6%; in that of `CCn1cc(NCc2ccccc2Cl)c(C(=O)O)n1` [CBK286807], 95.2%.
As to `COC(=O)c1cn([C@H]2CO[C@H]3[C@@H]2OC[C@@H]3NC(=O)C2CC2)nn1` [CBK289497], the viability at 28.5 h, 10 µM was determined as 86%.
In the case of `CCNC(=O)c1cn(Cc2ccccc2)nn1` [CBK073904] it was 97.9%; in that of `O=C(O)c1ccc(Oc2cccc([N+](=O)[O-])c2)cc1C(=O)O` [CBK261179], 110%.
In the case of `COc1cc2c(cc1OC)CN(Cc1nc3ccccc3[nH]1)CC2` [CBK126390] it was 91%; in that of `COCCNC(=O)c1ccc(-c2ccccc2C)nc1NC(C)=O` [CBK106325], 109%; in that of `COc1ccc(-c2cc([C@H]3CN4CC[C@H]3C[C@@H]4CNC(C)=O)n(C)n2)cc1OC` [CBK288757], 86.3%.
As for `Cc1sc2ncn(Cc3c(Cl)cccc3Cl)c(=O)c2c1C` [CBK265355], the viability at 28.5 h, 10 µM amounted to 78.8%.
For the molecule `CC(=O)Nc1ccc(S(=O)(=O)Nc2nnc(C(C)(C)C)s2)cc1` [CBK045499], the viability at 28.5 h, 10 µM was 100%.
For the molecule `OC1(c2cccnc2F)CCN(Cc2c(F)cccc2Cl)CC1` [CBK283148], the viability at 28.5 h, 10 µM is 106%.
As for `O=C(O)C[C@]1(C(=O)NC2CCCCCC2)CC(c2ccc(Cl)cc2)=NO1` [CBK286716], the viability at 28.5 h, 10 µM was 92.3%.
In the case of `O=C(Nc1cccc2cccnc12)c1cccc2ccccc12` [CBK261473] it was 72.7%; in that of `CCn1cc(CC(=O)Nc2cccc(-n3cnnc3)c2)c2ccccc21` [CBK282669], 66.4%; in that of `CC(/C=C/c1ccc(N(C)C)cc1)=N\NC(=N)SC1CC(=O)N(c2ccc(C(=O)O)cc2)C1=O` (stereo not drawn) [CBK262460], 91.6%.
As for `CC(=O)c1ccc(N(C)C)cc1` [CBK033830], the figure is 106%; as for `CN(C)S(=O)(=O)N(CC(=O)O)c1ccccc1` [CBK267660], 105%; as for `O=[N+]([O-])c1cc(-c2nc(-c3cccs3)c(-c3cccs3)[nH]2)ccc1Br` [CBK265009], 102%.
For `O=C(c1ccco1)N1CCN(c2ncc(-c3ccc(N4CCOCC4)cc3)n3ccnc23)CC1` [CBK091225], the viability at 28.5 h, 10 µM was 92.6%.
With `O=C1NC(=O)c2c(NC(=O)C3CCCCC3)cccc21` [CBK019837], the viability at 28.5 h, 10 µM came to 88.3%.
For `O=C(CCn1c(C(F)F)cc2cccnc21)N1CCCCCC1` [CBK284983], the viability at 28.5 h, 10 µM is 96.9%.
In the case of `O=C(Nc1cccc(Cl)c1)Nc1ccc(C(=O)O)c(O)c1` [CBK269518] it was 94.2%; in that of `Cc1ccc(C(C)(C)C(=O)N2CCC(CC(=O)N(C)C)CC2)cc1` [CBK281973], 99.8%.
As for `Cc1ccc(N)c(C(=O)CCC(=O)O)c1` [CBK017815C], the figure is 92.1%; as for `COc1cc(OC)nc(CN2C(=O)CC3(C2=O)C(=O)N(CCCN(C)C(=O)c2ccco2)c2ccc(F)cc23)n1` (stereo not drawn) [CBK076006], 85.6%.
In the case of `CCN1CCC2CCC(C1)N2Cc1ccc(Oc2cnccn2)cc1` (stereo not drawn) [CBK304034] it was 95.7%.
In the case of `COC(=O)COc1ccc(S(=O)(=O)N2CCC(C(N)=O)CC2)cc1` [CBK265993], the viability at 28.5 h, 10 µM worked out at 96.7%.
As for `C/C(=C\c1ccccc1)CN1CCC(C(=O)N2CCN(Cc3ccc4c(c3)OCO4)CC2)CC1` [CBK264327], the figure is 94.1%; as for `Cc1ccc(C(=O)NC(Cc2cccs2)c2ccccn2)c(=O)[nH]1` (stereo not drawn) [CBK285210], 89.8%; as for `COC(=O)C1(Cc2cc(-c3ccccc3F)no2)CCOCC1` [CBK285182], 87.8%.
As for `O=c1[nH]c(/C=C/c2cc(Br)ccc2OCc2cccc3ccccc23)c([N+](=O)[O-])c(=O)[nH]1` [CBK268052], the figure is 86.3%.
As for `CN1CCN(S(=O)(=O)c2ccc(NC(=O)c3cc(-c4cccnc4)nc4ccc(Cl)cc34)cc2)CC1` [CBK267734], the figure is 94.2%.
Consider `Cc1c(-c2ccnc(N3CCOCC3)n2)cnc2nc(-c3ccncc3)nn12` [CBK288551], for which the viability at 28.5 h, 10 µM amounted to 98.6%.
As for `COc1cccc(-c2n[nH]c3c2C(c2cccnc2)NC3=O)c1` (stereo not drawn) [CBK288238], the figure is 86.3%; as for `O=C(N/N=C/c1ccccc1)c1ccccn1` [CBK261640], 92.8%; as for `COc1ccc(/N=C(/Nc2cccc(C(F)(F)F)c2)SC)cc1` [CBK018896I], 98.4%.
As for `CCCCN(Cc1ccccc1)C(=O)[C@H]1CCCC[C@H]1C(=O)O` [CBK286596], the figure is 85.3%; as for `O=C(Nc1ncc(Cc2ccc(F)cc2)s1)C1CCCCC1` [CBK058611], 105%; as for `CC(=O)c1cccc(NS(=O)(=O)c2ccc(OC(F)(F)F)cc2)c1` [CBK043606], 88.5%.
Take `Cc1cc(/C=C(/C#N)c2cccc(F)c2)c(C)n1-c1ccc(S(N)(=O)=O)cc1` [CBK268268]: the viability at 28.5 h, 10 µM turned out to be 99.9%.
In the case of `O=C(c1n[nH]cc1Cl)N1CCCC(c2cc3ccccc3cn2)C1` (stereo not drawn) [CBK285062] it was 88%; in that of `CCOC(=O)CN1CCN(C(=O)Nc2ccccc2OC(F)(F)F)CC1` [CBK043656], 97%; in that of `CC(C)Nc1nc2cc(Cl)c(Cl)cc2nc1OCCCN(C)C` [CBK115282], 93.1%.
As for `COc1ccc(CNC(=O)CC[C@H]2CNC(=O)[C@H]3NCC[C@H]3N2C)cc1` [CBK289025], the figure is 87.6%.
